Where a SMILES comes first, the peptide text is derived from it. The star is where a group is joined. 5FAM = O=C1OC2(c3ccc(O)cc3Oc3cc(O)ccc32)c2ccc(C(=O)*)cc21
How the values were obtained:
[1] = tested on: RyR; assay: Pilot FLT-FRET screen of NIH Clinical Collection 1 with D-FKBP and A-CaM near their Kd; assay type: binding; conditions: preliminary screen
Excerpt: The optimal concentration of A-CaM may vary from sarcoplasmic reticulum to cell samples, but using a concentration of A-CaM that is at or near its Kd will allow detection of enhanced CaM binding by FRET assays. Compounds that modulate CaM binding are expected to also affect RyR channel function, which can optionally be determined in secondary functional assays. […] A pilot screen of NIH Clinical Collection 1 used donor labeled FKBP and acceptor labeled CaM near their Kd.
Using the method illustrated in FIGS. 3 and 4, a preliminary screen of NIH Clinical Collection 1 (NCC1, 446 compounds) was conducted. The concentrations of A-CaM and D-FKBP were near their Kd. […] In FIG. 36, we represented the effect of compounds on FRET as E(compound)/E(control) (E/E0). Values outside the 3SD threshold (dotted line) are considered hits. Increased FRET (E/E0>1) indicates increased FKBP and/or CaM binding; decreased FRET (E/E0<1) indicates decreased FKBP and/or CaM binding.

[2] = molecular target: T1, RyR2 (Rattus norvegicus, UniProt B0LPN4); assay: HF647-DPc10 wash-in kinetics by FRET from F-FKBP (donor quench) in permeabilized myocytes; assay type: binding; design: These fluorescent proteins were added to saponin-permeabilized myocytes with or without pre-equilibration with saturating DPc10 concentration; endogenous in cells; host or cells: saponin-permeabilized rat ventricular myocytes; conditions: myocytes
Experimental: The FRET pair we used in this consisted of ALEXA FLUOR™ 488 (donor) covalently attached to FKBP12.6 (F-FKBP) and HiLyte Fluor™647 (acceptor) covalently attached to DPc10 (F-DPc10).^8 To detect F-DPc10 specifically bound to RyR2, we measured donor fluorescence intensities through a 500-530 nm bandpass filter before and after equilibration with acceptor (donor quenching method). The FRET efficiency (E) was calculated according to: E=1-FDA/FD, Where FD and FDA are the fluorescence intensities of the donor-only and donor-plus-acceptor samples, respectively (Oda et al., Circ Res. 2013;112:487-497). Statistics
Next we tested whether RyR2 oxidation would increase HF647-DPc10 access. Here, we used FRET between F-FKBP as a donor and HF647-DPc10 as an acceptor, to detect DPc10 that specifically binds at RyR2 (Oda et al., Circ Res. 2013; 112:487-497).
Target sequence in this assay (B0LPN4 whole entry): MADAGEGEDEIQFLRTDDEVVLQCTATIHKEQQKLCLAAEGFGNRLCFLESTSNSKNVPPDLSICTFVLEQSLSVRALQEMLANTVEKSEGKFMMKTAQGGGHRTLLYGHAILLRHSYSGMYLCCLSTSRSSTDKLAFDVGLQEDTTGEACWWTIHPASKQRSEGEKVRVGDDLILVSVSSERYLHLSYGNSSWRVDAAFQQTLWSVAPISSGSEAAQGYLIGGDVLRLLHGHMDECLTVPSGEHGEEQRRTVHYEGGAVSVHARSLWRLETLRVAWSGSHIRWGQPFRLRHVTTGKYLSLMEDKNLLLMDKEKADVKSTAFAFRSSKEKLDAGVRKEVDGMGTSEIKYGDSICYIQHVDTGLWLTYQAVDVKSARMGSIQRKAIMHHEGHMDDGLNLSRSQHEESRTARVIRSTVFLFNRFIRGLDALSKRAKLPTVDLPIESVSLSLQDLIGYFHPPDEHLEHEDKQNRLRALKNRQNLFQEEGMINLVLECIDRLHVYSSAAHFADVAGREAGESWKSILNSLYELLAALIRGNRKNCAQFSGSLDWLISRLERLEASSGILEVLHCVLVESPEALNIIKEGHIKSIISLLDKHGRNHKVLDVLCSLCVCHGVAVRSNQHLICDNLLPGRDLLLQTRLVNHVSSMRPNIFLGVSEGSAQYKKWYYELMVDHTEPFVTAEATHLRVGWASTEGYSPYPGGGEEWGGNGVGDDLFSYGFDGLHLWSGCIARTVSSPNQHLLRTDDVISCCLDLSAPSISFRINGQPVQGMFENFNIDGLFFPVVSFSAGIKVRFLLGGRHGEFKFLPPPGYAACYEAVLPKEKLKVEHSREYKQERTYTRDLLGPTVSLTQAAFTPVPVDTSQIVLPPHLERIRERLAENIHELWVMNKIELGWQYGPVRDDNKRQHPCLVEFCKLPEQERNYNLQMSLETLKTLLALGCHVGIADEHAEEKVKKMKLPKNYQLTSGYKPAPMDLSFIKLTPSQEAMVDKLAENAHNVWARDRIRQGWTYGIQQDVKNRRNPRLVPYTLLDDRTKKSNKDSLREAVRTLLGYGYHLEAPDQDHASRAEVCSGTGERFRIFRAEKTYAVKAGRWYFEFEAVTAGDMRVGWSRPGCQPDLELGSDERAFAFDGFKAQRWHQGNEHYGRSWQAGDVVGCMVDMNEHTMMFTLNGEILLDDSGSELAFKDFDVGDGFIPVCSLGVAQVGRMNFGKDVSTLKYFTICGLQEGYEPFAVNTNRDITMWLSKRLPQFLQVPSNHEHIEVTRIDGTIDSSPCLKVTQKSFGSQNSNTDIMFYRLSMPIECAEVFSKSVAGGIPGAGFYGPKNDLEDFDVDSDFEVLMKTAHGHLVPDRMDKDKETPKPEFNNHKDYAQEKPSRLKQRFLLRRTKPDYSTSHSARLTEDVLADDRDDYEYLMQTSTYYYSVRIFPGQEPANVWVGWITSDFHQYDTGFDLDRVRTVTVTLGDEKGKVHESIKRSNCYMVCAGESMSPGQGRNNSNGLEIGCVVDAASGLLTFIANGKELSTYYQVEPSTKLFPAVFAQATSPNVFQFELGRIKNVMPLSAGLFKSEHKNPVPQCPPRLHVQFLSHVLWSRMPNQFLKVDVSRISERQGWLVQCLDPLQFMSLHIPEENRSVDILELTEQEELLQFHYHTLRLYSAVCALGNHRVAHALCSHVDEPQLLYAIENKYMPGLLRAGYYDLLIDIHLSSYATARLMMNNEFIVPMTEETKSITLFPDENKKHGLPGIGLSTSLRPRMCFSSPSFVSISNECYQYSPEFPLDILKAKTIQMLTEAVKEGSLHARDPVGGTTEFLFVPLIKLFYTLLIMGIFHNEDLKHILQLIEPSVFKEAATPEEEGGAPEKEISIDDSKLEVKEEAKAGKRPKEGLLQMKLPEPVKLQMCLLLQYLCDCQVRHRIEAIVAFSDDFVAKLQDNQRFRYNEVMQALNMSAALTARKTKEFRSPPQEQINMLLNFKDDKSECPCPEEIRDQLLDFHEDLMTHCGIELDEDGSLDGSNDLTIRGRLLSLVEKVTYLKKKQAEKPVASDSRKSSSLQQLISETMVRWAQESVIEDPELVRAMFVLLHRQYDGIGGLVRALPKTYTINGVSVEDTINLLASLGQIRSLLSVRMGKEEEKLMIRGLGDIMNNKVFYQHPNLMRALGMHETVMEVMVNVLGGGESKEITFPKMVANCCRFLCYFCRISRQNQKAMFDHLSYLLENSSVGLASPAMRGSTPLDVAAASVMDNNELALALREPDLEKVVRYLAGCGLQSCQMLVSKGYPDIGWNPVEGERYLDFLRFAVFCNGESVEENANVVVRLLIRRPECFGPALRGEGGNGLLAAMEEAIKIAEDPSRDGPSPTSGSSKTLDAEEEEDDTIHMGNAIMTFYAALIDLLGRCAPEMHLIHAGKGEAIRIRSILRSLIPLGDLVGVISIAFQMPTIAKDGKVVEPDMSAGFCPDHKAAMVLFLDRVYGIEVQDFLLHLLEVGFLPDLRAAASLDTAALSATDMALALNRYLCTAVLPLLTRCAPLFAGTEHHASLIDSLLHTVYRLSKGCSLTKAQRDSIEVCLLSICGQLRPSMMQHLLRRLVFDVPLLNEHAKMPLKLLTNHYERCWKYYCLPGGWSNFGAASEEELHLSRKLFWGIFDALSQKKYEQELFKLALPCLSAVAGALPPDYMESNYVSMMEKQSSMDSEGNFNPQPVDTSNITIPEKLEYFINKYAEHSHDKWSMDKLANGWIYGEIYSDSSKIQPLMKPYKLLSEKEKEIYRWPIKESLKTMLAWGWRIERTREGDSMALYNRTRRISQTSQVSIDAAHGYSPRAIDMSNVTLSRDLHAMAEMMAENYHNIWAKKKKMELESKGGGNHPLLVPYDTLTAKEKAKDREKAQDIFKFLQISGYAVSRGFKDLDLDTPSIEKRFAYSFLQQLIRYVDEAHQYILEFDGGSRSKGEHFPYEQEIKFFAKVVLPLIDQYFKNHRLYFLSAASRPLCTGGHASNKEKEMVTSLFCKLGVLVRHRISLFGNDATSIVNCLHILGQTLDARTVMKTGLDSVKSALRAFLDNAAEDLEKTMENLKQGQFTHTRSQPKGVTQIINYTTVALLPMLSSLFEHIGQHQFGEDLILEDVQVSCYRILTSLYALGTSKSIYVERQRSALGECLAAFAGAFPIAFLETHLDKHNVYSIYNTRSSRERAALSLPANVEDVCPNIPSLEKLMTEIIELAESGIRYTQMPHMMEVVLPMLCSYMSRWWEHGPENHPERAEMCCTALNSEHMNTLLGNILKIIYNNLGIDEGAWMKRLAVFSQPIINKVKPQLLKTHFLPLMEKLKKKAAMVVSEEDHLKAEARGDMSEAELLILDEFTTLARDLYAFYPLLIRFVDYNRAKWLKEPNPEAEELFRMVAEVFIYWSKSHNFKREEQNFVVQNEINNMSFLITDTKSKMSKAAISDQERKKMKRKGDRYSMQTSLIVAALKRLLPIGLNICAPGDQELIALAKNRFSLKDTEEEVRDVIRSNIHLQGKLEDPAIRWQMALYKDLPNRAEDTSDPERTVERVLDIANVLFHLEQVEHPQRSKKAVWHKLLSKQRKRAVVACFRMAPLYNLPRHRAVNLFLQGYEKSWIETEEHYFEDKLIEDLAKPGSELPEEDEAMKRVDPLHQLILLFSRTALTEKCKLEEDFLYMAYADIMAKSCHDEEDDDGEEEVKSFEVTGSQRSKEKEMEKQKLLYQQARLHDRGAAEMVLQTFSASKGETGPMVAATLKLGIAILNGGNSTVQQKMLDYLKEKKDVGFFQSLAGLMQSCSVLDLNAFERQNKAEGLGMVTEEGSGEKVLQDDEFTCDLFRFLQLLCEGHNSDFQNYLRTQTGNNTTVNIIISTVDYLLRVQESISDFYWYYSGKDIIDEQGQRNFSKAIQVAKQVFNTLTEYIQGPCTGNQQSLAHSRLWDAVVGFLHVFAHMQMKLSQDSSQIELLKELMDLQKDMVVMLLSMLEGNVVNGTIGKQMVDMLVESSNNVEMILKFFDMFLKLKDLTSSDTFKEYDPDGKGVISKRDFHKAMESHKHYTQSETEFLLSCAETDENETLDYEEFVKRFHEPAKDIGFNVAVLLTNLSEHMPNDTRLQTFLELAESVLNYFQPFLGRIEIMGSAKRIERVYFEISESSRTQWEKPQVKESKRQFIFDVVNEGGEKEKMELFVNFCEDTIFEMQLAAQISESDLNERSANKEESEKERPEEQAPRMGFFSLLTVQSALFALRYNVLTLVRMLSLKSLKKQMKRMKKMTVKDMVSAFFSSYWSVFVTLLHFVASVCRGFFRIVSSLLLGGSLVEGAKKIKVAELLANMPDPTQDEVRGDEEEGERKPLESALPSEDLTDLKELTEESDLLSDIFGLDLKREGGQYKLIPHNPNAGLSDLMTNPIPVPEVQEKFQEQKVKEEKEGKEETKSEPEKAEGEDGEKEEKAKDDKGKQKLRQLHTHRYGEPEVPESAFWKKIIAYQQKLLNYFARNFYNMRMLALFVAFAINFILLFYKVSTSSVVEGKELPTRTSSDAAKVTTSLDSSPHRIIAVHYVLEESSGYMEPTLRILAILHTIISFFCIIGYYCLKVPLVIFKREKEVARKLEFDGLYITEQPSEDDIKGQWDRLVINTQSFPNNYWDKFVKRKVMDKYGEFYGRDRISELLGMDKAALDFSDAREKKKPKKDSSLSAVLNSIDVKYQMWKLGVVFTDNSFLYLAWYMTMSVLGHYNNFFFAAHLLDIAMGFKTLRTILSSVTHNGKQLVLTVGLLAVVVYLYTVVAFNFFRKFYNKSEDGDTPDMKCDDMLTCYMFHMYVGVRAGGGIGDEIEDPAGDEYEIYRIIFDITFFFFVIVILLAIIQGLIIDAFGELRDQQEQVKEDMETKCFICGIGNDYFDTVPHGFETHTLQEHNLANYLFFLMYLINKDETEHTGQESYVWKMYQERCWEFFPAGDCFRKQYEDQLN
Target sequence in this assay (P68106 with tags, fused parts or gaps T15C/C23A/C77I partner): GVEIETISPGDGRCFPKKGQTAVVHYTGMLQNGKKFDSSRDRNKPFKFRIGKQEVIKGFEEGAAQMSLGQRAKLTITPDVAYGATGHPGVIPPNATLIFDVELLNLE

[3] = molecular target: T1, RyR2; assay: F-DPc10 wash-in and washout kinetics at the myocyte Z-line; assay type: binding; design: endogenous in cells; host or cells: saponin-permeabilized adult rat ventricular myocytes
Experimental: To characterize DPc10-binding kinetics at Z-lines, we performed F-DPc10 wash-in (500 nmol/L) and washout experiments in permeabilized myocytes (FIG. 10A). Association (τwash-in=79.0±3.2 minutes) and dissociation (τwashout=149.8±4.4 minutes) were very slow compared with similar FKBP12.6 measurements (Guo et al., Circ Res, 2010; 106:1743-1752). From the wash-in/washout measurements, we calculated the association and dissociation rates constants, kon and koff, respectively, according to the following equation: kwash-in=[F-DPc10]kon+koff where kwashout≈koff and k=1/τ (s^−1). Accordingly, kon=202±20 (L mol^−1 s^−1) and koff=0.11±0.01 (10^−3 s^−1). […] We repeated this kinetic analysis using FRET between FKBP12.6 and DPc10, thus assessing the RyR2-specific DPc10 binding (FIG. 11A AND 11B). […] Based on these kinetic and affinity analyses, we infer that most of the Z-line-specific DPc10 binding is to RyR2. This is also consistent with Bmax, which would imply ≈1 DPc10 per RyR2 monomer.
We were intrigued by the slow kwash-in and conducted measurements to further understand the basis of this slow association. We tested the hypothesis that at resting [Ca^2+]i, DPc10 access to its RyR2 binding site is sterically hindered. If the N-terminal and central domains are tightly zipped to each other, then this interaction may occlude the DPc10-binding site on the RyR2, thus limiting the kon for DPc10. Alternatively, a limiting factor may be the rate at which DPc10 adopts a conformation that can bind to RyR2. To discern between these mechanisms, we determined the effect of [F-DPc10] on τwash-in. If the small fraction of DPc10 in the right conformation limits binding rate, then τwash-in should be faster at higher [F-DPc10], according to Equation. […] Instead, a 10-fold increase in [F-DPc10] had no significant effect on the τwash-in, although it did increase Bmax (FIG. 10B). The same was seen when using FKBP12.6-DPc10 FRET to assess τwash-in with 0.5 vs 5 μmol/L HF647-DPc10 (FIG. 12A AND 12B).
In our working model, under resting conditions, the RyR2 closed state may be stabilized by the interaction between the N-terminal and central domain in the zipped state. We hypothesized that conditions that promote RyR2 opening might enhance the rate of unzipping and accelerate τwash-in for F-DPc10. To test this, we first monitored F-DPc10 wash-in at elevated Ca^2+ (500 nmol/L). However, the 13% faster mean τwash-in was not significant (FIG. 13A). […] Thus, we preincubated myocytes with ryanodine (100 μmol/L) plus caffeine ([…]), which are known to favor long RyR2 openings and were reported to cause RyR2 domain unzipping in HEK293 cells (Liu et al., J Cell Sci, 2010; 123: 1775-1784). Ryanodine+caffeine produced a 21% faster τwash-in (P=0.002; FIG. 13B). However, the most significant effect was seen after presaturating RyR2 with NF-DPc10 (and then NF-DPc10 washout with F-DPc10 present; FIG. 13A). […] Assuming that koff of NF-DPc10 is the same as for F-DPc10 and using Equation, the kon is increased by 3.2-fold by unzipping as a result of prebinding of NF-DPc10 to the RyR2. Our working hypothesis is that the RyR2 open state may increase the probability of an RyR2 shifting to the unzipped state and may allow faster F-DPc10 wash-in. It also seems that the RyR2 open state (favored by caffeine-ryanodine) differs from the unzipped state (bound with DPc10).
Both FKBP12.6 and CaM bind to the RyR2 and can reduce channel opening, which might alter DPc10 binding. […] Neither CaM nor FKBP12.6 pretreatment altered M-line F-DPc10 fluorescence (FIG. 15). […] We infer that CaM stabilizes the domain interaction between N-terminal and central domains in the zipped state and thereby may reduce DPc10 access to its binding site. To test for direct CaM-DPc10 interaction, we performed control FRET measurements between donor-labeled CaM and acceptor-labeled DPc10 in solution in the absence of RyR. The maximal FRET efficiency (<1%) ruled out direct CaM-DPc10 interaction. […]
Target sequence in this assay (B0LPN4 whole entry): as the sequence (B0LPN4 whole entry) above

[4] = molecular target: T1, RyR2; assay: Steady-state F-DPc10 binding at the Z-line of saponin-permeabilized myocytes (confocal); design: endogenous in cells; host or cells: saponin-permeabilized adult rat ventricular myocytes; conditions: in-cell binding isotherm, [Ca2+]i 50 nmol/L
Experimental: Rat ventricular myocytes were isolated and permeabilized as previously described (Li et al., Circ Res, 2002; 90:309-316). All procedures were performed according to the Guiding Principles in the Care and Use of the Animals and were approved by the Council of American Physiological Society. DPc10, FKBP12.6, and CaM were labeled at specific sites with small fluorescence probes, similar to our previous studies (Guo et al., Circ Res, 2010; 106:1743-1752; Cornea et al., PNAS USA, 2009; 106:6128-6133; Guo et al., Biophys J, 2011; 101:2170-2177).
Confocal images was measured using a Biorad RADIANCE2100™ laser scanning confocal microscope equipped with an Argon ion laser, Green HeNe laser and with a Nikon Fluo x40 oil lens. FRET (fluorescence resonance energy transfer) experiments between CaM and DPc10, and FKBP12.6 and DPc10 were performed using an Olympus FV1000 confocal microscope. All experiments were done at room temperature.
Myocytes were exposed to […] F-DPc10, with intracellular [Ca^2+] ([Ca^2+]i) set at 50 nmol/L. F-DPc10 fluorescence is highest at the Z-lines, where RyR2 is concentrated, forming a typical cross-striated pattern. The difference between fluorescence intensity at the Z-line (Fz) and M-line (FM) is taken to represent [F-DPc10] specifically bound at the myocyte Z-line. We calibrated the bound [F-DPc10] in permeabilized myocytes using the linear relationship between F-DPc10 fluorescence and bath [F-DPc10] (FIG. 7B). […] To further test whether this Z-line-associated F-DPc10 represents RyR2-bound F-DPc10, we measured FRET between FKBP12.6 (known to specifically bind to RyR2 with subnanomolar affinity) (Guo et al., Circ Res, 2010; 106:1743-1752) and F-DPc10. […] Donor (AF568-FKBP12.6) fluorescence at the Z-line was quenched by HF647-DPc10, but the M-line signal was not (FIG. 9B). […]
Target sequence in this assay (B0LPN4 whole entry): as above

[5] = calculated from wash-in/washout

C=CC[C@@H]1/C=C(\C)C[C@H](C)C[C@H](OC)[C@H]2O[C@@](O)(C(=O)C(=O)N3CCCC[C@H]3C(=O)O[C@H](/C(C)=C/[C@@H]3CC[C@@H](O)[C@H](OC)C3)[C@H](C)[C@@H](O)CC1=O)[C@H](C)C[C@@H]2OC [Tacrolimus]
effect on FRET, E(compound)/E(control); hit = outside the 3SD threshold [1]: among the hits | effect on FRET, E(compound)/E(control); hit = outside the 3SD threshold ([1]; listed as FK506): reducing FRET

CC[C@H](C)[C@H](NC(=O)CNC(=O)[C@H](Cc1ccc(O)cc1)NC(=O)[C@@H](NC(=O)[C@H](CCCNC(=N)N)NC(=O)[C@H](CC(=O)O)NC(=O)[C@H](CC(C)C)NC(=O)[C@H](Cc1ccccc1)NC(=O)[C@H](CC(C)C)NC(=O)[C@@H](NC(=O)[C@H](CCSC)NC(=O)[C@H](C)NC(=O)[C@H](C)NC(=O)[C@H](CCCCN)NC(=O)[C@H](Cc1c[nH]cn1)NC(=O)[C@H](CC(=O)O)NC(=O)[C@@H]1CCCN1C(=O)[C@H](CS)NC(=O)[C@H](Cc1ccccc1)NC(=O)CNC(=O)c1ccc2c(c1)C(=O)OC21c2ccc(O)cc2Oc2cc(O)ccc21)C(C)C)C(C)C)C(=O)N[C@@H](CCC(=O)O)C(=O)N[C@H](C(=O)N[C@@H](CCC(N)=O)C(=O)N[C@@H](CC(=O)O)C(=O)N[C@@H](Cc1ccccc1)C(=O)N[C@@H](CC(C)C)C(=O)N[C@@H](CC(C)C)C(=O)N[C@@H](Cc1c[nH]cn1)C(=O)N[C@@H](CC(C)C)C(=O)N[C@@H](CC(C)C)C(=O)N[C@@H](CCC(=O)O)C(=O)N[C@H](C(=O)NCC(=O)N[C@@H](Cc1ccccc1)C(=O)N[C@@H](CC(C)C)C(=O)N1CCC[C@H]1C(=O)O)C(C)C)C(C)C [F-DPc10] (5FAM-GFCPDHKAAMVLFLDRVYGIEVQDFLLHLLEVGFLP-OH)
τwash-in in controls [2]: ~80 min | association τwash-in ([3]; F-DPc10 500 nmol/L): 79.0 ± 3.2 min | dissociation τwashout ([3]; F-DPc10 500 nmol/L): 149.8 ± 4.4 min | koff [3, 5]: 0.00011 ± 1e-05 s⁻¹ | kon [3, 5]: 202 ± 20 M⁻¹ s⁻¹ | kon slower than that measured for FKBP12.6 ([3]; similar conditions): ≈ 1800 fold | maximal binding (Bmax), concentration of F-DPc10-binding sites [4]: 1.59±0.03 μmon

O=C1N(c2ccccc2)c2ccccc2C1(Cc1ccncc1)Cc1ccncc1 [Linopirdine]
effect on FRET, E(compound)/E(control); hit = outside the 3SD threshold [1]: hits

Nc1nc(Cl)nc2c1ncn2[C@H]1C[C@H](O)[C@@H](CO)O1 [Cladribine]
effect on FRET, E(compound)/E(control); hit = outside the 3SD threshold [1]: hits

NC(=O)c1cccnc1 [Nicotinamide]
effect on FRET, E(compound)/E(control); hit = outside the 3SD threshold [1]: hits
